Test results taken from PubChem BioAssay AID2305 (GlaxoSmithKline (GSK), 2010).

System: P. falciparum 3D7 growth, pLDH absorbance
Test: P. falciparum 3D7 growth inhibition, dose response, strain 3D7 (AID 2305)

Point of comparison: O=C(NCC(c1ccc(C(F)(F)F)cc1)N1CCCC1)c1cc(-c2ccncc2)c(-c2cccc(O)c2)o1 (configuration not stated), IC50 1060 nM. Against it:
- Cc1ccc(F)cc1S(=O)(=O)NCC(C)c1ccc(NC(=O)Nc2cccc(F)c2)cc1 (configuration not stated) — within 1.5-fold, 970 nM
- COc1ccc(Cc2c(C)nc3nc(N)nc(N)c3c2C)cc1OC — within 1.5-fold, 910 nM
- CN1N=C2c3ccccc3CCC2C1c1ccc(C#N)cc1 (configuration not stated) — 1.6-fold lower, 660 nM
- CCOc1ccc2nc(C)cc(NN=Cc3ccc(Cl)cc3)c2c1 — within 1.5-fold, 760 nM
- Cc1cc(N[C@@H](Cc2ccccc2)C(=O)NCCc2ccccc2)nc(NCCc2cccs2)n1 — within 1.5-fold, 710 nM
- O=C(NC1CC1)c1ccc(N2CCC(Oc3ccc(F)cc3)CC2)nc1 — within 1.5-fold, 1090 nM
- Cc1ccc(C2(CN3CCC(NC(=O)c4ccn[nH]4)CC3)CCCCC2)cc1 — 4.8-fold lower, 220 nM
- O=C(Nc1ccccc1O)c1ccc(S(=O)(=O)c2ccc(Cl)cc2)cc1 — within 1.5-fold, 1350 nM
- COc1ccc(CN2CCC(N3CC(c4ccccc4)(c4ccccc4)OCC3=O)C2)c(O)c1 (configuration not stated) — within 1.5-fold, 930 nM
- O=C(Nc1ccc(Cl)cc1)c1ccc(CN2CCCN(Cc3ccsc3)CC2)cc1 — within 1.5-fold, 860 nM
- O=C(N[C@@H](Cc1ccccc1)C(=O)NCc1cccc(C(F)(F)F)c1)c1ccc(O)c(-c2ccc(Cl)c(Cl)c2)c1 — 1.5-fold lower, 700 nM
- CC(CN1CCN(C)CC1)C(=O)Nc1ccc(-c2ccc(-c3nc4ccc(C(F)(F)F)cc4[nH]3)cc2)cc1 (configuration not stated) — 2.6-fold lower, 410 nM
- NC(=NCCc1ccccc1Cl)c1ccc2ccccc2c1 — 1.5-fold higher, 1630 nM
- Cc1ccc2c(c1[N+](=O)[O-])N=NCC2Oc1ccccc1 (configuration not stated) — within 1.5-fold, 870 nM
- COc1ccc(CN2CCCN(Cc3cccc(NC(=O)c4ccc(Cl)c(Cl)c4)c3)CC2)cc1 — within 1.5-fold, 970 nM
- CCCn1c(=N)c(C(=O)NCCc2ccccc2)cc2c(=O)n3cccc(C)c3nc21 — within 1.5-fold, 1120 nM
- O=C(NCCCCN1CCC(c2ccc3c(c2OCCO)CCCC3)CC1)c1ccc(-c2ccc(C(F)(F)F)cc2)cc1 — within 1.5-fold, 860 nM
- CC(CN(C)C)C(=O)Nc1cccc(-c2cccc(-c3nc4ccccc4[nH]3)c2)c1 (configuration not stated) — the same, 1060 nM
- Cc1nc2nc(N)nc(N)c2c(C)c1Cc1cccc(F)c1 — 3.1-fold lower, 340 nM
- CCC(C)NC(=O)Cn1c2ncccc2c(=O)n1-c1ccc(C)cc1 (configuration not stated) — within 1.5-fold, 1260 nM
- COc1cc(C=CC(=O)N2CCN(Cc3cccc(C)c3)CC2)ccc1OCc1c(C)noc1C — within 1.5-fold, 1030 nM
- N#Cc1ccc(NC(=NCCc2c[nH]c3ccccc23)Nc2ccc(-c3ccccc3)cc2)c(O)c1 — 3.1-fold lower, 340 nM
- CN1CCCC(CN2CCN(Cc3ccc(-c4cccc(-c5nc6ccc(F)cc6[nH]5)c4)cc3)CC2)C1 (configuration not stated) — 5.9-fold lower, 180 nM
- CCOc1ccc2nc3cc(N)ccc3c(N)c2c1 — 2-fold lower, 530 nM
- COc1cc(-c2nnc(SCC(=O)Nc3cc(C)on3)n2C)cc(OC)c1O — 5.9-fold lower, 180 nM
- C=C[C@H]1CN2CC[C@H]1C[C@@H]2[C@@H](O)c1ccnc2ccccc12 — within 1.5-fold, 770 nM
- N#Cc1ccc(N2CCN(C(=O)c3cccc(-c4noc(C(F)(F)F)n4)c3)CC2)nc1 — 4.8-fold lower, 220 nM
- CC(C)C[C@@H](C(=O)Nc1ccc(Cc2ccc(NC(=O)[C@H](CC(C)C)N(C)C(=O)OC(C)(C)C)cc2)cc1)N(C)C(=O)OC(C)(C)C — within 1.5-fold, 820 nM
- CCc1[nH]nc(C(=O)Nc2cccc(N3CCCC3)c2)c1C — within 1.5-fold, 1460 nM
- CCOc1cc(O)c(-c2nc(N)ncc2-c2ccc3c(c2)OCCO3)cc1CC — within 1.5-fold, 730 nM
- CC(CN(C)C)C(=O)Nc1ccc(-c2cccc(-c3nc4ccccc4[nH]3)c2)cc1 (configuration not stated) — within 1.5-fold, 720 nM
- COCc1cc(C)nc2sc(C(=O)Nc3cc(C(C)(C)C)ccc3O)c(N)c12 — within 1.5-fold, 710 nM
- N#Cc1ccc(N(CCNS(=O)(=O)c2cc(Br)c(Cl)s2)Cc2ccccc2C(F)(F)F)cc1C(F)(F)F — within 1.5-fold, 860 nM
- CN1CCC(NCc2ccc(-c3ccc(C(F)(F)F)cc3)cc2)CC1 — within 1.5-fold, 800 nM
- CN(Cc1cc(C(F)(F)F)cc(C(F)(F)F)c1)C(=O)C(Cc1ccc(F)cc1)C1CCCNC1 (configuration not stated) — within 1.5-fold, 1540 nM
- CNc1ccc(CNCc2cccc(-c3ccc(-c4nc5c(C)cccc5[nH]4)s3)c2)cc1 — within 1.5-fold, 990 nM
- Nc1c2ccccc2nc2cc(Cl)ccc12 — within 1.5-fold, 710 nM
- CC1CCN(C(=O)[C@H](Cc2c[nH]c3ccccc23)NS(=O)(=O)c2ccc(Cl)cc2)CC1 — 1.6-fold lower, 670 nM
- Cc1ccc(-c2nnc(Nc3ccc(OCC(N)=O)cc3)c3ccccc23)cc1S(=O)(=O)NCC1CCCO1 (configuration not stated) — within 1.5-fold, 750 nM
- COc1cc2c(cc1N(C(C)C)S(=O)(=O)c1sc3ccc(Cl)cc3c1C)CCNCC2 — within 1.5-fold, 1050 nM
- N=c1c(C(=O)NCc2ccccc2)cc2c(=O)n3ccccc3nc2n1CCc1ccccc1 — 2-fold lower, 530 nM
- CN1CCN(c2cccc(NC(=O)c3ccc(-c4ccc(C#N)cc4)cc3)c2)CC1 — within 1.5-fold, 1260 nM
- O=C(CN1CCN(C(=O)c2ccco2)CC1)Nc1ccccc1Br — 1.9-fold lower, 560 nM
- CN(C)c1ccc(CN2CCCC(CNC(=O)c3ccc(-c4cccc(C(F)(F)F)c4)s3)C2)cc1 (configuration not stated) — within 1.5-fold, 1200 nM
- CCC(=O)Nc1cc(=O)[nH]c2nc(-c3ccc(Cl)cc3)nn12 — 1.9-fold lower, 570 nM
- Cc1ccc(F)c(OC2CCN(c3ccc(C(=O)NC4CC4)cn3)CC2)c1 — within 1.5-fold, 820 nM
- Cc1cc2ccc(/C=C/C(=O)NC3CCC(CCN4CCc5ccc(C#N)cc5CC4)CC3)cc2[nH]1 (configuration not stated) — within 1.5-fold, 940 nM
- Cc1cc(C)cc(-n2c(C)cc(C=C3SC(=Nc4ccc(Cl)cc4)NC3=O)c2C)c1 — 15-fold lower, 70 nM
- CC(C)C(=O)NC(Nc1ccc([N+](=O)[O-])cc1)C(Cl)(Cl)Cl (configuration not stated) — within 1.5-fold, 840 nM
- CCc1cccc2c(C#N)cn(CC(=O)NCCc3ccccc3)c12 — within 1.5-fold, 890 nM
- FC(F)(F)c1cnc(Sc2nnc(-c3ccco3)o2)c(Cl)c1 — within 1.5-fold, 790 nM
- Clc1ccc2c(N3CCN(CCN4CCN(c5ccnc6cc(Cl)ccc56)CC4)CC3)ccnc2c1 — 8.2-fold lower, 130 nM
- COc1cc(Nc2ccnc3cc(-c4ccccn4)ccc23)cc(OC)c1OC — within 1.5-fold, 910 nM
- O=C(O)c1cccc2c(-c3ccncc3)cccc12 — within 1.5-fold, 940 nM
- CCOC(=O)C(NC(=O)c1ccc([N+](=O)[O-])o1)C(C)C (configuration not stated) — the same, 1060 nM
- Cc1cc(=O)c(-c2ccc(S(=O)(=O)c3ccc(Cl)cc3)cc2)c(C)[nH]1 — within 1.5-fold, 880 nM
- COc1cccc(NC(=O)NC2CCN(CCCCCNC(=O)/C=C/c3ccc(Cl)c(Cl)c3)CC2)c1 — within 1.5-fold, 780 nM
- O=C(NC1CCN(Cc2ccc(F)cc2)CC1)c1ccc(-c2cccc(C(F)(F)F)c2)s1 — within 1.5-fold, 1360 nM
- O=C(c1cccs1)N1CCN(c2ccc([N+](=O)[O-])c(NC3CC3)c2)CC1 — within 1.5-fold, 770 nM
- CCCC(=O)c1cnc2cc(O)ccc2c1Nc1ccccc1C — 1.6-fold lower, 650 nM
- COc1cc(NC(=O)c2nn(CCCN3CCC(N4CCCC4)CC3)cc2-c2ccc(Cl)c(Cl)c2)cc(OC)c1OC — 1.9-fold lower, 560 nM
- O=c1c(NCCCN(Cc2ccc(F)cc2)c2ccccn2)c(NCc2ccncc2)c1=O — 7.1-fold lower, 150 nM
- Cc1nnsc1C(=O)Nc1ccc(-c2cccc(-c3nc4ccc(F)cc4[nH]3)c2)cc1 — within 1.5-fold, 770 nM
- O=S(=O)(c1cccc(C(F)(F)F)c1)N1CCC(CO)(Cc2cccc(C(F)(F)F)c2)CC1 — within 1.5-fold, 960 nM
- Cc1ccccc1Cc1cccc(/N=C(\N)Nc2ccc(Cl)cc2)n1 — 1.6-fold lower, 680 nM
- Cc1ccc(Cc2c(N)nc3nc(N)nc(N)c3c2C)cc1 — 5.6-fold lower, 190 nM
- C=CCOC(=O)O[C@@H]1[C@@H](OC(=O)OCC=C)[C@@H](OC)O[C@H](COC(c2ccccc2)(c2ccccc2)c2ccccc2)[C@H]1OC(=O)OCC=C — within 1.5-fold, 890 nM
- COc1ccccc1C1CCN(C2CCC(NC(=O)/C=C/c3cc(F)cc(C(F)(F)F)c3)CC2)CC1 (configuration not stated) — within 1.5-fold, 900 nM
- Cc1cccc2[nH]c(-c3ccc(-c4ccc(CNCCCN5CCCC5=O)cc4)s3)nc12 — within 1.5-fold, 750 nM
- Nc1cccc(CNCc2cccc(-c3ccc(-c4nc5ccccc5[nH]4)s3)c2)c1 — 1.8-fold lower, 600 nM
- CC(C)(C)c1ccc(NC(=O)c2cccc(CN3CCCN(CC4CCCCC4)CC3)c2)cc1 — within 1.5-fold, 740 nM
